One may read the pKd as the negative decadic logarithm of the Kd, by convention in mol/L.

Data on one compound can be found in patent publication US20230255966A1, “A COMBINATION OF A CBP/P300 BROMODOMAIN INHIBITOR AND AN EGFR INHIBITOR FOR USE IN TREATING EGFR-MUTANT NSCLC” (TOLREMO THERAPEUTICS AG, priority 2020, published 2023).

Assay [1] concerns the target T1, BRD2(1) (Homo sapiens, UniProt P25440).
T1 construct: T7 phage strains displaying bromodomains were grown in parallel; purchased DiscoverX; host or cells: T7 phage in E. coli host derived from BL21
Kind of assay: BROMOscan BromoKdMAX. Format: binding. The protocol: (§1) A BromoKdMAX was performed at DiscoverX.
(§2) The assay principle is the following: BROMOscan™ is a novel industry leading platform for identifying small molecule bromodomain inhibitors. Based on proven KINOMEscan™ technology, BRO-MOscan™ employs a proprietary ligand binding site-directed competition assay to quantitatively measure interactions between test compounds and bromodomains.
(§3) The assay was conducted as follows: For the Bromodomain assays, T7 phage strains displaying bromodomains were grown in parallel in 24-well blocks in an E. coli host derived from the BL21 strain. E. coli were grown to log-phase and infected with T7 phage from a frozen stock (multiplicity of infection=0.4) and incubated with shaking at 32° C. until lysis (90-150 minutes). The lysates were centrifuged (5,000×g) and filtered (0.2 μm) to remove cell debris. […] The liganded beads were blocked with excess biotin and washed with blocking buffer (SeaBlock (Pierce), 1% BSA, 0.05% Tween 20, 1 mM DTT) to remove unbound ligand and to reduce non-specific phage binding. […] Test compounds were prepared as 1000× stocks in 100% DMSO. Kds were determined using an 11-point 3-fold compound dilution series with one DMSO control point. […] The compounds were then diluted directly into the assays such that the final concentration of DMSO was 0.09%. All reactions performed in polypropylene 384-well plates. Each was a final volume of 0.02 ml. […] The bromodomain concentration in the eluates was measured by qPCR.

Assay [2] concerns the target T2, BRD2(1, 2) (Homo sapiens, UniProt P25440).
T2 construct: T7 phage strains displaying bromodomains were grown in parallel; purchased DiscoverX; host or cells: T7 phage in E. coli host derived from BL21
Description: BROMOscan BromoKdMAX. Type of assay: binding. The protocol: as §1, §2, §3

Assay [3] addresses T3, BRD4(1) (Homo sapiens, UniProt O60885).
T3 construct: T7 phage strains displaying bromodomains were grown in parallel; purchased DiscoverX; host or cells: T7 phage in E. coli host derived from BL21
Description: BROMOscan BromoKdMAX. Format: binding. The protocol:
as §1, §2, §3

Assay [4] concerns the target T4, BRD4(1, 2) (Homo sapiens, UniProt O60885).
T4 construct: T7 phage strains displaying bromodomains were grown in parallel; purchased DiscoverX; host or cells: T7 phage in E. coli host derived from BL21
Description: BROMOscan BromoKdMAX. Format: binding. The protocol: as §1, §2, §3

In assay [5] the target is T5, BRD4(2) (Homo sapiens, UniProt O60885).
T5 construct: T7 phage strains displaying bromodomains were grown in parallel; purchased DiscoverX; host or cells: T7 phage in E. coli host derived from BL21
Kind of assay: BROMOscan BromoKdMAX. Type of assay: binding. The protocol:
as §1, §2, §3

Assay [6] has as its target T6, BRD4(full-length, short-iso.) (Homo sapiens, UniProt O60885).
T6 construct: BRD4 (full-length, short-iso.); purchased DiscoverX; host or cells: T7 phage in E. coli host derived from BL21 (general protocol)
Description: BROMOscan BromoKdMAX. Type of assay: binding. The protocol:
as §1, §2, §3

Assay [7] addresses T7, BRD7 (Homo sapiens, UniProt Q9NPI1).
T7 construct: T7 phage strains displaying bromodomains were grown in parallel; purchased DiscoverX; host or cells: T7 phage in E. coli host derived from BL21
Kind of assay: BROMOscan BromoKdMAX. Format: binding. The protocol:
as §1, §2, §3

Assay [8] concerns the target T8, BRD8(2) (Homo sapiens, UniProt Q9H0E9).
T8 construct: T7 phage strains displaying bromodomains were grown in parallel; purchased DiscoverX; host or cells: T7 phage in E. coli host derived from BL21
Kind of assay: BROMOscan BromoKdMAX. Type of assay: binding. The protocol:
as §1, §2, §3

For assay [9], the target named is T9, BRD9 (Homo sapiens, UniProt Q9H8M2).
T9 construct: T7 phage strains displaying bromodomains were grown in parallel; purchased DiscoverX; host or cells: T7 phage in E. coli host derived from BL21
T9 sequence (Q9H8M2 136-240 limits assumed): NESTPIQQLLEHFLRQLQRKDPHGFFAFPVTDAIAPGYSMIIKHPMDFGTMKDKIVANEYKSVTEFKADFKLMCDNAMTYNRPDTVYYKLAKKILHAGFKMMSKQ
Description: BROMOscan BromoKdMAX. Format: binding. The protocol: as §1, §2, §3

The target of assay [10] is T10, BRDT(1) (Homo sapiens, UniProt Q58F21).
T10 construct: T7 phage strains displaying bromodomains were grown in parallel; purchased DiscoverX; host or cells: T7 phage in E. coli host derived from BL21
Kind of assay: BROMOscan BromoKdMAX. Format: binding. The protocol:
as §1, §2, §3

Assay [11] deals with T11, BRDT(1, 2) (Homo sapiens, UniProt Q58F21).
T11 construct: T7 phage strains displaying bromodomains were grown in parallel; purchased DiscoverX; host or cells: T7 phage in E. coli host derived from BL21
Kind of assay: BROMOscan BromoKdMAX. Type of assay: binding. The protocol: as §1, §2, §3

For assay [12], the target named is T12, BRDT(2) (Homo sapiens, UniProt Q58F21).
T12 construct: T7 phage strains displaying bromodomains were grown in parallel; purchased DiscoverX; host or cells: T7 phage in E. coli host derived from BL21
Description: BROMOscan BromoKdMAX. Format: binding. The protocol:
as §1, §2, §3

The target of assay [13] is T13, BRPF1 (Homo sapiens, UniProt P55201).
T13 construct: T7 phage strains displaying bromodomains were grown in parallel; purchased DiscoverX; host or cells: T7 phage in E. coli host derived from BL21
T13 sequence (P55201 628-732 limits assumed): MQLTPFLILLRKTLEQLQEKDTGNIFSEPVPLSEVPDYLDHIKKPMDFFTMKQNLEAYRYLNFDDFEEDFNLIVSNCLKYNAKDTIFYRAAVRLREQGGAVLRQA
Description: BROMOscan BromoKdMAX. Format: binding. The protocol: as §1, §2, §3

Assay [14] addresses T14, CECR2 (Homo sapiens, UniProt Q9BXF3).
T14 construct: T7 phage strains displaying bromodomains were grown in parallel; purchased DiscoverX; host or cells: T7 phage in E. coli host derived from BL21
Description: BROMOscan BromoKdMAX. Format: binding. The protocol:
as §1, §2, §3

The target of assay [15] is T15, PCAF (Homo sapiens, UniProt Q92831).
T15 construct: T7 phage strains displaying bromodomains were grown in parallel; purchased DiscoverX (BROMOscan / BromoKdMAX service); host or cells: T7 phage in E. coli host derived from BL21
T15 sequence (Q92831 723-827 limits assumed): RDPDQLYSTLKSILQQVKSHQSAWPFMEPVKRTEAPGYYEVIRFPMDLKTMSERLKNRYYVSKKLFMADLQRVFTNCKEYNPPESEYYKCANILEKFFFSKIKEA
Kind of assay: BROMOscan BromoKdMAX. Format: binding. The protocol:
as §1, §2, §3

Assay [16] deals with T16, TAF1(2) (Homo sapiens, UniProt P21675).
T16 construct: T7 phage strains displaying bromodomains were grown in parallel; purchased DiscoverX (BROMOscan / BromoKdMAX service); host or cells: T7 phage in E. coli host derived from BL21
T16 sequence (P21675 1519-1628 limits assumed): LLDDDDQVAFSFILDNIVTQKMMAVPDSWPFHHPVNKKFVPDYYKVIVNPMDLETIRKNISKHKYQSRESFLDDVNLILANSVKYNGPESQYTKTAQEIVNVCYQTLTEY
Description: BROMOscan BromoKdMAX. Format: binding. The protocol:
as §1, §2, §3

Assay [17] has as its target T17, TAF1L(2) (Homo sapiens, UniProt Q8IZX4).
T17 construct: T7 phage strains displaying bromodomains were grown in parallel; purchased DiscoverX (BROMOscan / BromoKdMAX service); host or cells: T7 phage in E. coli host derived from BL21
Description: BROMOscan BromoKdMAX. Format: binding. The protocol: as §1, §2, §3

Assay [18] addresses T18, TRIM24(Bromo.) (Homo sapiens, UniProt O15164).
T18 construct: TRIM24(Bromo.); purchased DiscoverX (BROMOscan / BromoKdMAX service); host or cells: T7 phage in E. coli host derived from BL21
Description: BROMOscan BromoKdMAX. Type of assay: binding. The protocol: as §1, §2, §3

The target in assay [19] is T19, TRIM24(PHD, Bromo.) (Homo sapiens, UniProt O15164).
T19 construct: TRIM24(PHD, Bromo.); purchased DiscoverX (BROMOscan / BromoKdMAX service); host or cells: T7 phage in E. coli host derived from BL21
T19 sequence (O15164 824-1006 limits assumed): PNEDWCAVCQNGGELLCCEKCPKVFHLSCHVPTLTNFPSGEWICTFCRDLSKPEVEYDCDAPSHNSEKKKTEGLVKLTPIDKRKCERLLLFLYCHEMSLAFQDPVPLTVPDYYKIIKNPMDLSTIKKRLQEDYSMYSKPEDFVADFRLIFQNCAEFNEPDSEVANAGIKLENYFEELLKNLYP
Description: BROMOscan BromoKdMAX. Format: binding. The protocol:
as §1, §2, §3

The target in assay [20] is T20, WDR9(2) (Homo sapiens, UniProt Q9NSI6).
T20 construct: T7 phage strains displaying bromodomains were grown in parallel; purchased DiscoverX (BROMOscan / BromoKdMAX service); host or cells: T7 phage in E. coli host derived from BL21
T20 sequence (Q9NSI6 1313-1418 limits assumed): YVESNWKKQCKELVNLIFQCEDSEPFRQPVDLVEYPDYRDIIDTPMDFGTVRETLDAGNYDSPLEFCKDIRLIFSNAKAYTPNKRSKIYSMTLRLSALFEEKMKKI
Description: BROMOscan BromoKdMAX. Type of assay: binding. The protocol: as §1, §2, §3

Assay [21] has as its system HCC827 cells. Kind of assay: Gene expression analysis (qPCR of ALPP and HOPX). Format: cell-based. Particulars: HCC827, 1 μM CBP/p300 inhibitor in presence of Gefitinib, 24 h. The protocol:
(§4) Equal amount of cDNA was then subjected to qPCR analysis using the Kapa SYBR fast kit (KK4611) in a 384 well format in a Roche Light Cycler 480. Gene expression of genes was evaluated by subtraction of housekeeping gene CT-values (b-Actin) from CT of the genes of interest, and by calculating the ΔΔCT by subtracting the DMSO control value from sample of interest to finally calculate fold change differences of treated versus control treated sample.
(§5) Data is from 2 independent experiments with qPCRs in duplicate (mean±SEM) (FIG. 1C-D).

In assay [22] the test system is NCI-H1975 cells. Description: Gene expression analysis (qPCR of ALPP and HOPX). To be noted: NCI-H1975, 1 μM CBP/p300 inhibitor in presence of 20 nM osimertinib, 24 h. Type of assay: cell-based. The protocol:
as §4, §5

pKd: −log10 of the molar value.

T2 sequence (P25440 71-455 limits assumed): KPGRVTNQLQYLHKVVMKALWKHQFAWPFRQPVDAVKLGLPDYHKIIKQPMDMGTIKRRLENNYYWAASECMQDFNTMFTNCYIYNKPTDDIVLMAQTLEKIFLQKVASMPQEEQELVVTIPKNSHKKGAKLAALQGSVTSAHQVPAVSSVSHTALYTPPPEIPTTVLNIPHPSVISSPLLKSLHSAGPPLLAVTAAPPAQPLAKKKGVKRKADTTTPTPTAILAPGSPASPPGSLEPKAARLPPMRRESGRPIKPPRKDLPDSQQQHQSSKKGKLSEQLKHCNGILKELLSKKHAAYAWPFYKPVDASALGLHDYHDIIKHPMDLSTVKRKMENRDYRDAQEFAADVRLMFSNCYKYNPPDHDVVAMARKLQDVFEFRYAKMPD
T7 sequence (Q9NPI1 131-235 limits assumed): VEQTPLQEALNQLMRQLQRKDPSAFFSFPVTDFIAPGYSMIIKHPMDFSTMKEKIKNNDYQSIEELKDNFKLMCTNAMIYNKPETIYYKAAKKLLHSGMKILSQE
T14 sequence (Q9BXF3 434-538 limits assumed): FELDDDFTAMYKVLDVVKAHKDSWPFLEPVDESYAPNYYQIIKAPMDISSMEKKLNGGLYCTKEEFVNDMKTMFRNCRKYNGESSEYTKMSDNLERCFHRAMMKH
T1 sequence (P25440 74-180 limits assumed): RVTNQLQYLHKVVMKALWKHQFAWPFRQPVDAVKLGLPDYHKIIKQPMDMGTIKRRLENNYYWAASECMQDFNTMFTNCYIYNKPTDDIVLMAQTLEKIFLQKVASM
T18 sequence (O15164 899-1004 limits assumed): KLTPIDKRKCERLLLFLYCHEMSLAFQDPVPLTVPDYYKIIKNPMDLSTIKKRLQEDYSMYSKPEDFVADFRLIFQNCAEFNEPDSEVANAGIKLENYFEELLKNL
T17 sequence (Q8IZX4 1517-1626 limits assumed): as the sequence (P21675 1519-1628 limits assumed) above, with V46M, M51V, V102I, L107I counted along it
T8 sequence (Q9H0E9 1099-1207 limits assumed): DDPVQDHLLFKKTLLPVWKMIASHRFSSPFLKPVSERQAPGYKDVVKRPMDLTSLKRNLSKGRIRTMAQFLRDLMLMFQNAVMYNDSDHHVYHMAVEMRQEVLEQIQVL

As to `CO[C@H]1CC[C@H](n2c([C@@H]3CCCC(=O)N3c3ccc(F)c(F)c3)nc3cc(-c4c(C)noc4C)ccc32)CC1` [CCS1477], the negative logarithm of the Kd (pKd) in [1] is 6.64; in assay [2] it was 6.21; in assay [3], 6.60; in [4], 5.16; in [5], 5.28; in [6], 6.36. The negative logarithm of the Kd (pKd) in assay [7] was 5.29; in assay [8], below 5.00; in assay [9], 6.10; in assay [10], 6.41; in assay [11] it was 5.62; in [12] it was 5.05. Moreover, the negative logarithm of the Kd (pKd) is 5.85 in assay [13]; below 5.00 in [14]; below 5.00 in assay [15]; 5.10 in assay [16]; below 5.00 in assay [17]; 6.17 in [18]. Further, the negative logarithm of the Kd (pKd) in assay [19] was 5.72; in [20] it was below 5.00. The “EGFR inhibitor induced gene expression (ALPP, HOPX)” value in assay [21] and in assay [22] was “reverse EGFR inhibitor induced gene expression” each time.
